The values that follow come from US20040266784A1, “Calcium channel inhibitors comprising benzhydril spaced from piperazine” (priority 1998, published 2004).

The target of test [1] is T1, rat N-type channels (α1B+α2δ+β1b subunits) (Rattus norvegicus, UniProt Q02294).
T1 construct: expressed in transfected cells
The experiment in a line: Whole cell patch clamp, N-type calcium channel block in HEK 293 cells. It is filed as cell-based. The settings on record: Tested at 0.1 Hz, 5 mM Ba2+.

For test [2], the target named is T2, P/Q-type channels (α1A+α2δ+β1b cDNA subunits) (Rattus norvegicus, UniProt P54282).
T2 construct: expressed in transfected cells
The test can be described thus: Whole cell patch clamp, P/Q-type calcium channel block in HEK 293 cells. It is filed as cell-based. As to conditions: Tested at 0.1 Hz, 5 mM Ba2+. How it is done:
(§1) Antagonist activity was measured using whole cell patch recordings on human embryonic kidney cells either stably or transiently expressing rat N-type channels (α1B+[…]+β1b subunits) with 5 mM barium as a charge carrier. Alternatively, cells either stably or transiently expressing rat L-type channels (α1C+α2δ+β1b cDNA subunits) and P/Q-type channels (α1A+α2δ+β1b cDNA subunits)
(§2) After an incubation period of from 24 to 72 hrs the culture medium was removed and replaced with external recording solution (see below). Whole cell patch clamp experiments were performed using an Axopatch 200B amplifier (Axon Instruments, Burlingame, Calif.) linked to an IBM compatible personal computer equipped with pCLAMP software. […] Current data shown were elicited by a train of 100 ms test pulses at 0.066 Hz from −100 mV and/or −80 mV to various potentials (min. −20 mV, max. +30 mV). Drugs were perfused directly into the vicinity of the cells using a microperfusion system.
(§3) Normalized dose-response curves were fit (Sigmaplot 4.0, SPSS Inc., Chicago, Ill.) by the Hill equation to determine IC50 values. […]
(§4) Whole cell patch clamp experiments were performed using an Axopatch 200B amplifier (Axon Instruments, Burlingame, Calif.) linked to a personal computer equipped with pCLAMP software. […] Data were analyzed using Clampfit (Axon Instruments) and SigmaPlot 4.0 (Jandel Scientific).
(In general: Patch clamp records ionic current or voltage across a cell membrane.)

In test [3] the target is T3, human α1G subunits (T-type channels) (Homo sapiens, UniProt O43497).
T3 construct: expressed in transfected cells
The test can be described thus: Block of α1G T-type channels, patch clamp in HEK cell lines. Type of test: cell-based. The method, then:
Standard patch-clamp techniques were employed to identify blockers of T-type currents. Briefly, previously described HEK cell lines stably expressing human α1G subunits were used for all the recordings (passage #: 4-20, 37° C., 5% CO2). To obtain T-type currents, plastic dishes containing semi-confluent cells were positioned on the stage of a ZEISS AXIOVERT S100 microscope after replacing the culture medium with external solution (see below). Whole-cell patches were obtained using pipettes (borosilicate glass with filament, O.D.: 1.5 mm, I.D.: 0.86 mm, 10 cm length), fabricated on a SUTTER P-97 puller with resistance values of ˜5 MΩ (see below for internal medium).
Test compounds were dissolved in external solution, 0.1-0.01% DMSO. After ˜10 min rest, they were applied by gravity close to the cell using a WPI microfil tubing. The “non-inactivating” pre-pulse was used to examine the resting block of a compound. The “inactivating” protocol was employed to study voltage-dependent block. However, the initial data were obtained using the non-inactivating protocol.

Test [4] concerns the target T4, rat L-type channels (α1C+α2δ+β1b cDNA subunits) (Rattus norvegicus, UniProt P22002).
T4 construct: expressed in transfected cells
The test can be described thus: Whole cell patch clamp, L-type calcium channel block in HEK 293 cells. Type of test: cell-based. The settings on record: Tested at 0.1 Hz, 5 mM Ba2+. The method, then:
as §1, §2, §3, §4

Test [5] has as its target T1, rat N-type channels (α1B+α2δ+β1b subunits). The experiment in a line: Whole cell patch clamp, N-type calcium channel block in HEK 293 cells. It is filed as cell-based. As to conditions: for specificity for N-type channels as compared to L and P/Q-type: FIGS. 2, 3 and 4. How it is done: as §1
HEK 293 cells were transfected by a standard calcium-phosphate-DNA coprecipitation method using the rat α1B+β1b+α2δ N-type calcium channel subunits in a vertebrate expression vector (for example, see Current Protocols in Molecular Biology).
as §2
Normalized dose-response curves were fit (Sigmaplot 4.0, SPSS Inc., Chicago, Ill.) by the Hill equation to determine IC50 values. Steady-state inactivation curves were plotted as the normalized test pulse amplitude following 5 s inactivating prepulses at +10 mV increments.
Alternatively, N-type calcium channels (α1B+α2δ+β1b cDNA subunits), L-type channels (α1C+α2δ+β1b cDNA subunits) and P/Q-type channels (α1A+α2δ+β1b cDNA subunits) were transiently expressed in HEK 293 cells. Briefly, cells were cultured in Dulbecco's modified eagle medium (DMEM) supplemented with 10% fetal bovine serum, 200 U/ml penicillin and 0.2 mg/ml streptomycin at 37° C. with 5% CO2. […] At 12 hours the medium was replaced and the cells transiently transfected using a standard calcium phosphate protocol and the appropriate calcium channel cDNAs. Fresh DMEM was supplied and the cells transferred to 28° C./5% CO2.
Whole cell patch clamp experiments were performed using an Axopatch 200B amplifier (Axon Instruments, Burlingame, Calif.) linked to a personal computer equipped with pCLAMP software. […] Currents were typically elicited from a holding potential of −80 mV to +10 mV using Clampex software (Axon Instruments). […] The compounds were then applied during the low frequency pulse trains for two to three minutes to assess tonic block, and subsequently the pulse frequency was increased to 0.2 Hz to assess frequency dependent block. Data were analyzed using Clampfit (Axon Instruments) and SigmaPlot 4.0 (Jandel Scientific).

The next test relates to rat formalin model. The test can be described thus: Formalin-induced pain model. Type of test: in vivo. The settings on record: 30 mg/kg IP, saline control=100%. How it is done: The effects of intrathecally delivered compounds of the invention on the rat formalin model were measured. The compounds were reconstituted to stock solutions of approximately 10 mg/ml in propylene glycol.
The following study groups were used, with test compound, vehicle control (propylene glycol) and saline delivered intraperitoneally (IP):
Prior to initiation of drug delivery baseline behavioral and testing data were taken.
On the morning of testing, a small metal band (0.5 g) was loosely placed around the right hind paw. The rat was placed in a cylindrical Plexiglas chamber for adaptation a minimum of 30 minutes. Test compound or vehicle control was administered 10 minutes prior to formalin injection (50 μl of 5% formalin) into the dorsal surface of the right hindpaw of the rat. The animal was then placed into the chamber of the automated formalin apparatus where movement of the formalin injected paw was monitored and the number of paw flinches tallied by minute over the next 60 minutes.

The mark [6] stands for this setting: 80 mV, read-out: Block of α1G T-type Channels IC50, 80 mV.
The mark [7] stands for this setting: 100 mV, non-inactivating protocol, read-out: Block of α1G T-type Channels IC50, 100 mV.
Setting [8] is: 0.067 Hz, read-out: IC50 for N-type Calcium Channel Block (0.067 Hz).
The mark [9] stands for this setting: 0.2 Hz, read-out: IC50 for N-type Calcium Channel Block (0.2 Hz).

Like-named read-outs stand apart in the source and are kept apart here. A value given as a limit tells only on which side of the number the result lay.

T1 sequence (Q02294 whole entry): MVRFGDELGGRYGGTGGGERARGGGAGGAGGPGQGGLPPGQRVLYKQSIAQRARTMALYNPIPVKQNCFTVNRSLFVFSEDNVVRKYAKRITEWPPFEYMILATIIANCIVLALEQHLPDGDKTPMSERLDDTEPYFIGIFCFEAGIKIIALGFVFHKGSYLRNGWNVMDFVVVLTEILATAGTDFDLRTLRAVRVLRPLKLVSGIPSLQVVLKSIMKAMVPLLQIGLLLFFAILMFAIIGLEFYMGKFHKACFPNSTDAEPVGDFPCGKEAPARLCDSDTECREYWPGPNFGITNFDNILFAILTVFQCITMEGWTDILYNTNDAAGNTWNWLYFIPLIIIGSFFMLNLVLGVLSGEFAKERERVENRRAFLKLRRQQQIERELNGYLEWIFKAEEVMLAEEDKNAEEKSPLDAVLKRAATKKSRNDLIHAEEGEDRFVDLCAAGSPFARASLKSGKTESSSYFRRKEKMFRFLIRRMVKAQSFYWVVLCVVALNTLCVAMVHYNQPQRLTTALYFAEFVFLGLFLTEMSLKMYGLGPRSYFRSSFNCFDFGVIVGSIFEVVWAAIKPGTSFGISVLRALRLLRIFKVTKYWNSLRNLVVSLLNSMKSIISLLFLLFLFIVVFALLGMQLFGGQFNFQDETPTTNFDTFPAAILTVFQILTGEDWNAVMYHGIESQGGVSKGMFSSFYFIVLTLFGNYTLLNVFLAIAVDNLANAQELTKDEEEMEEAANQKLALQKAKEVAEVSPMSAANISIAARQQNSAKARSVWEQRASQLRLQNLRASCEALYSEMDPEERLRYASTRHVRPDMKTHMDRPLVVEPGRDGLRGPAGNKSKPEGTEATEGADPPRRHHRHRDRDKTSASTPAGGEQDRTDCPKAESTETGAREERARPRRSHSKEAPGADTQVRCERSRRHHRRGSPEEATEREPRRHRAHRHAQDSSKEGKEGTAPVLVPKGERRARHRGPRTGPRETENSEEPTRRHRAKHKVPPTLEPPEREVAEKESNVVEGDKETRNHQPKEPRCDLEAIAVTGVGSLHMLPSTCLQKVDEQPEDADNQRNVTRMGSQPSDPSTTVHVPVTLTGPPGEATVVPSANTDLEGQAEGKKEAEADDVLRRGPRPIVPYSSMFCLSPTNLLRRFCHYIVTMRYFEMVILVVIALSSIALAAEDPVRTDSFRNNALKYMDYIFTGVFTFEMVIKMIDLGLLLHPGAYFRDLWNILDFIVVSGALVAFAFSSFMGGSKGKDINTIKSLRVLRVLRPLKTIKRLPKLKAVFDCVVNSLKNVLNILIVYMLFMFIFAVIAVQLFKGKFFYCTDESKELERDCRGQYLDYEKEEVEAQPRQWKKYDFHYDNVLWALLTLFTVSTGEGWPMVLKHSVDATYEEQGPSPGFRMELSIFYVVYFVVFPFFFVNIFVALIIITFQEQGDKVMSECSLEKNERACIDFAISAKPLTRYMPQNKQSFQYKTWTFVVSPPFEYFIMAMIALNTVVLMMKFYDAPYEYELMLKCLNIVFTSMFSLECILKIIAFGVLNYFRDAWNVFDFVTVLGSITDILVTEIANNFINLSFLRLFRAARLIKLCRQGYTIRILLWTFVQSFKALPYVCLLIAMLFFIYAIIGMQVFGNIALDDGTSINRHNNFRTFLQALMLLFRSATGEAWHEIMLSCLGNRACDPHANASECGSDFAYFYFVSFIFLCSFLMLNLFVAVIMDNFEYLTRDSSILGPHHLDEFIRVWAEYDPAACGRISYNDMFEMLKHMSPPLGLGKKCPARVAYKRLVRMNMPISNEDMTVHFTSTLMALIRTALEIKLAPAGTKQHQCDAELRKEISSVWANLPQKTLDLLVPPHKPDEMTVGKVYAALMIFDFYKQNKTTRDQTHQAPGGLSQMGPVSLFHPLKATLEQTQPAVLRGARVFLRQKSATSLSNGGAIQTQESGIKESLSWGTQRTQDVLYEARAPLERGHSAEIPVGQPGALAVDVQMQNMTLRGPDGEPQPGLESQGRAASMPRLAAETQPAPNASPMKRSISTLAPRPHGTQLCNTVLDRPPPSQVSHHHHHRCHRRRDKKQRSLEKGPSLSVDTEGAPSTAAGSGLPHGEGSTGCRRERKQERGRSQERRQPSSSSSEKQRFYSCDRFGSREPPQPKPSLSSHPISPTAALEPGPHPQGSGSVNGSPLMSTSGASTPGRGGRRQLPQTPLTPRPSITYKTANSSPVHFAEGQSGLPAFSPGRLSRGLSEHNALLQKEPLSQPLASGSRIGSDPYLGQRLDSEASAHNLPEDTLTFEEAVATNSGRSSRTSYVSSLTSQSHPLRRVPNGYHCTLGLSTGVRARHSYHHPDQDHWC
T1 sequence (P54290 25-944 partner limits assumed): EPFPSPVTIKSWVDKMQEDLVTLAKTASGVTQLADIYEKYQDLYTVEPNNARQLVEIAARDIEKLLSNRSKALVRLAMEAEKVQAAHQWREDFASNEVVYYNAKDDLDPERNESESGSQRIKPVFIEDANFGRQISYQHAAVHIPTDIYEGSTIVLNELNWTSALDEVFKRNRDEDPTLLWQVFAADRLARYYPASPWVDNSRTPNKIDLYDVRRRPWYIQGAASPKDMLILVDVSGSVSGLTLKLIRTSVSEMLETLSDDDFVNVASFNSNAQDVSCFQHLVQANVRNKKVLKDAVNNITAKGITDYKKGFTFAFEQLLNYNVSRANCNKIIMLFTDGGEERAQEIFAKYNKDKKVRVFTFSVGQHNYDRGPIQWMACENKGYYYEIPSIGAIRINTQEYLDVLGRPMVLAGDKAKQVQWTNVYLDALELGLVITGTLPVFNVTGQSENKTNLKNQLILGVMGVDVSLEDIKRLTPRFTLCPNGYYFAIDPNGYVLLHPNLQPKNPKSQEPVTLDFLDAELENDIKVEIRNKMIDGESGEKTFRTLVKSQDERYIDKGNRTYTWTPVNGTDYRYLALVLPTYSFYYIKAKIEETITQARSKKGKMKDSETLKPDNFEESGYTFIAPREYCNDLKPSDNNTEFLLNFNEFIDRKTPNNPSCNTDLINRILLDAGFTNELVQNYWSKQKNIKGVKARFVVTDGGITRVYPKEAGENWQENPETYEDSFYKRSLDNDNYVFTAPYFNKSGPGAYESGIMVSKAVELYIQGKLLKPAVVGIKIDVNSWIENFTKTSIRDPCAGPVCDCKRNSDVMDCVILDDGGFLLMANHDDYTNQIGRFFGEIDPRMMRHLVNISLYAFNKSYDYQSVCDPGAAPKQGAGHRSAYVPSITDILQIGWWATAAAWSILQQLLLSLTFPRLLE
T1 sequence (P54290 945-1091 partner limits assumed): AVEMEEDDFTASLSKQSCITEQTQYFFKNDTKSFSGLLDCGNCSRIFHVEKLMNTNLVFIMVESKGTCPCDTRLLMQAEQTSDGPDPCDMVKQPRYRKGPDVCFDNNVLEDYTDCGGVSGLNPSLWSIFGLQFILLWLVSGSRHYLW
T1 sequence (P54283 whole entry partner): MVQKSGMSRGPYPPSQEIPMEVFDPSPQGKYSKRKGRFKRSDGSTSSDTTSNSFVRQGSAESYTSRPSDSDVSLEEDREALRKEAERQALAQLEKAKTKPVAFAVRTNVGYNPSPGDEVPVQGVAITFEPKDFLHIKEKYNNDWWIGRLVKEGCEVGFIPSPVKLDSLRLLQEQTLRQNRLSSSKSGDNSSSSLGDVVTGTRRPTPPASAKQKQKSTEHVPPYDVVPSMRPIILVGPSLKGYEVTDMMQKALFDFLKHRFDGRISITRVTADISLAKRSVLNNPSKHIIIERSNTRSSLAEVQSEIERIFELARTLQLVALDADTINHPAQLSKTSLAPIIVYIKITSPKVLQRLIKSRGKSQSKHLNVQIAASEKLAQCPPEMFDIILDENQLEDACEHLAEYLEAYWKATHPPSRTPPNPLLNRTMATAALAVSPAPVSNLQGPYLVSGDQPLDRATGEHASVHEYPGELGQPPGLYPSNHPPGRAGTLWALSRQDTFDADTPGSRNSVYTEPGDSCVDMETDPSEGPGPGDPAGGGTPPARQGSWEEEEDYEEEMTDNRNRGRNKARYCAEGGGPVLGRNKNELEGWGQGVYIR

For the compound `CCOC(=O)C1CN(Cc2cc(OC)c(OC)c(OC)c2)CCN1CCCCCC(c1ccc(F)cc1)c1ccc(F)cc1` (stereo not shown) [Compound P36, 1-[6,6-bis-(4-fluoro-phenyl)-hexyl]-4-(3,4,5,-trimethoxy-benzyl)-piperazine-2-carboxylic acid ethyl ester], the IC50 in test [1] was 136 nM; in test [2] it was 920 nM; in test [3] (setting [6]) it was 47 nM; in test [3] (setting [7]) it was 202 nM; in test [4], greater than 100000 nM; in test [5] (setting [8]) it was 240 nM. In addition, the IC50 in test [5] (setting [9]) amounted to 130 nM. Also, the “specificity for N-type channels as compared to L and P/Q-type” value in test [5] is given as “selectively block N-type channels”.

On to `COc1c(C(C)(C)C)cc(CN2CCN(CCCCCC(c3ccc(F)cc3)c3ccc(F)cc3)C(=O)C2)cc1C(C)(C)C` [Compound P56], for which the IC50 amounted to 92 nM in test [3] (setting [6]), 95 nM in test [3] (setting [7]), 78 nM in test [5] (setting [8]) and 59 nM in test [5] (setting [9]).

With `O=C(NCC(=O)N1CCN(CCCCCC(c2ccc(F)cc2)c2ccc(F)cc2)CC1)c1ccc(Cl)cc1` [Compound P83], the IC50 in test [3] (setting [6]) is 59 nM; in test [3] (setting [7]), 173 nM; in test [5] (setting [8]) it was 386 nM; in test [5] (setting [9]), 192 nM.

As for `Cc1ccc(C(=O)NCC(=O)N2CCN(CCCCCC(c3ccc(F)cc3)c3ccc(F)cc3)CC2)cc1` [Compound P84], the IC50 in test [3] (setting [6]) amounted to 149 nM; in test [3] (setting [7]) it was 370 nM; in test [5] (setting [8]) it was 511 nM; in test [5] (setting [9]), 295 nM.

Regarding `COc1c(C(C)(C)C)cc(C(=O)N2CCN(C(=O)CCCCC(c3ccc(F)cc3)c3ccc(F)cc3)C[C@@H]2C)cc1C(C)(C)C` [Compound P104], the IC50 in test [1] was found to be 61 nM; in test [2], 1660 nM; in test [3] (setting [6]) it was 270 nM; in test [3] (setting [7]) it was 579 nM; in test [4], 144000 nM; in test [5] (setting [8]) it was 60 nM. Also, in test [5] (setting [9]), the IC50 stood at 13 nM. Besides, the “Maximum Possible Effect±SEM, Phase I” value in the test with rat formalin model (Phase I) was 79 ± 9%. In addition, in the test on rat formalin model (Phase II), the “Maximum Possible Effect±SEM, Phase II” value amounted to 61 ± 9%. Also, the “Maximum Possible Effect±SEM, Phase IIA” value in the test with rat formalin model (Phase IIA) stood at 50 ± 12%. The “specificity for N-type channels as compared to L and P/Q-type” value in test [5] was “selectively block N-type channels”.

By IC50 is commonly meant the midpoint of a concentration-inhibition curve.
